Results on two compounds are retold here after patent US7928227B2, “2-oxo-1,3,5-perhydrotriazapine derivatives useful in the treatment of hyper-proliferative, angiogenesis, and inflammatory disorders” (Bayer Healthcare LLC, priority 2003, dated 2011).

Data set [1] in a line: Pharmacokinetics in the mouse (plasma levels by LC-MS after oral gavage of Example 1). The format is in vivo. The settings on record: for AUC / Cmax / concentration at 0.5 h / concentration at 1 h / concentration at 5 h: mouse, female ICr mice, single oral gavage of Example 1 at 30 mg/kg, plasma; for concentration at 0.5 h: 0.5 hours post dosing; for concentration at 1 h: 1 hour post dosing; for concentration at 5 h: 5 hours post dosing. The protocol: Female ICr mice received single doses of Example 1 by oral gavage at 30 mg/kg body weight. The vehicle used for administration consisted of 12.5% Cremophor, 12.5% ethanol and 75% saline. Blood samples were collected by cardiac puncture under anesthesia and plasma was isolated by centrifugation. Three animals were used for each time point of 0.5, 1 and 5 hours post dosing. Plasma levels of Example 1 and Intermediate 1 were measured by LC-MS.
Calibration samples (1 to 5,000 ng/mL) were prepared by spiking drug-free mouse plasma with known concentrations of Example 1 and Intermediate 1 and then processed with the study samples. An internal standard (close analog) was spiked at a final concentration of 100 ng/ml. Plasma samples were extracted via protein precipitation using acetonitrile (3:1). After vortexing for 1 minute, samples were centrifuged at 2500 rpm for 15 minutes. Supernatant was transferred to 96-well microtiter plates for LC-MS analysis. Analytes (Example 1 and Intermediate 1) and the internal standard were monitored using MRM transitions consisting of their protonated molecular ions to prominent fragment ions (Example 1 m/z 520 to m/z 270; Intermediate 1 m/z 465 to 252; internal standard m/z 469 to m/z 256). The calibration curve was constructed using least squares linear regression and utilized peak area ratios of the analyte and internal standard. Pharmacokinetic analysis of the measured plasma concentrations was conducted using the Watson® Drug Metabolism Laboratory Information Management System (Innaphase Corp, Philadelphia, Pa.). […] By changing the nature of substituent Q in Formula (I), it is possible to impact the stability, i.e., the speed of hydrolysis) of the prodrug, and therefore to modulate the plasma exposure to the pharmacologically active compound. High stabilities will lead to extended release of the drug, while low stabilities will contribute to high Cmax and short duration of action.

SMILES strings stand for the structures.

As a reminder, the AUC is concentration integrated over time. A lower AUC goes with low exposure. As usually defined, the Cmax is the maximum level reached in the sampled fluid or tissue. By melting point is commonly meant the temperature, or range, at which the solid turns liquid.

As to `CNC(=O)c1cc(Oc2ccc(N3CN(C)CN(c4ccc(Cl)c(C(F)(F)F)c4)C3=O)cc2)ccn1` [Example 1], the melting point lay in the range of 82 to 85 °C. Also, in data set [1], the area under the curve (AUC) amounted to 53.1 µM·h, the Cmax turned out to be 13 µM, the concentration at 0.5 h turned out to be 12.1 µM and the concentration at 1 h came out at 13 µM. The compound further had a concentration at 5 h in data set [1] of 9.4 µM. Further, in data set [1] (oral gavage of Example 1 at 30 mg/kg, result in words), the Absorption in mice result is given as “very well absorbed”.
As to `CNC(=O)c1cc(Oc2ccc(NC(=O)Nc3ccc(Cl)c(C(F)(F)F)c3)cc2)ccn1` [Intermediate 1, N-(4-chloro-3(trifluoromethyl)phenyl)-N′-(4-(2-(N-methylcarbamoyl)-4-pyridyloxy)phenyl)urea, reference compound], the “Levels detected in plasma after oral administration of the pro-drug Example 1” value in data set [1] (mice, oral gavage of Example 1 at 30 mg/kg, result in words) is “significant levels”. In addition, in data set [1], the area under the curve (AUC) came to 1 µM·h, the Cmax was 0.3 µM, the concentration at 0.5 h was 0.1 µM and the concentration at 1 h was 0.2 µM. Besides, the concentration at 5 h in data set [1] stood at 0.5 µM.
